Reference: patent US10544130B2, “Metallo-beta-lactamase inhibitors” (priority 2015, dated 2020)

Assays:
[1] = test system: Escherichia coli expressing NDM-1 (CLB30005, CLB30016); format: cell-based; details: with imipenem 1 μg/ml; 95% inhibition of bacterial growth
Procedure, shortened: (§1)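 Clinical strains were grown overnight at 35 °C on blood agar, adjusted to set OD600 in saline and diluted 1:100 into 1.1× CAMHB. Inhibitor was tested with and without imipenem at 1 μg/ml. After 22–24 h at 35 °C, absorbance was read to give synergistic concentration.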

[2] = test system: Klebsiella pneumoniae expressing VIM-1 (IHMA599644); format: cell-based; details: with imipenem 1 μg/ml; 95% inhibition of bacterial growth
Procedure, shortened: as §1

[3] = test system: Serratia marcescens expressing IMP-1 (CL5741); format: cell-based; details: with imipenem 1 μg/ml; 95% inhibition of bacterial growth
Procedure, shortened: as §1

[4] = test system: Pseudomonas aeruginosa PAO1 MB9798 (efflux+, IMP-1); details: ratio MITC95 PA 9798/MITC95 PA 9799; imipenem at 2 μg/mL
Procedure, shortened: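 Isogenic PAO1 pair (efflux+ MB9798, efflux− MB9799, both IMP-1) tested by microbroth MIC with fixed imipenem and/or ceftazidime, usually at CLSI breakpoint, plus fixed class A/C inhibitor against AmpC. MBL inhibitor titrated; concentration restoring susceptibility recorded and fold difference between strains taken as efflux extent.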

Row | Compound | Escherichia coli (NDM-1) MITC95 [1] [µM] | Klebsiella pneumoniae (VIM-1) MITC95 [2] [µM] | Serratia marcescens (IMP-1) MITC95 [3] [µM] | Efflux ratio [4]
1 | CN([C@H]1CCNC1)S(=O)(=O)c1ccc(-c2cccc3[nH]c(N)nc23)c(-c2nn[nH]n2)c1S(N)(=O)=O [Example 244, (S)-4-(2-amino-1H-benzo[d]imidazol-7-yl)-N1-methyl-N1-(pyrrolidin-3-yl)-3-(1H-tetrazol-5-yl)benzene-1,2-disulfonamide] | 0.7813 | 1.563 | 1.563 | 2.00
2 | NCc1ncc(-c2cccc(-c3ccc(S(=O)(=O)N[C@@H]4CCNC4)c(S(N)(=O)=O)c3-c3nn[nH]n3)c2)[nH]1 [Example 278, (R)-3′-(2-(aminomethyl)-1H-imidazol-5-yl)-N4-(pyrrolidin-3-yl)-2-(2H-tetrazol-5-yl)-[1,1′-biphenyl]-3,4-disulfonamide] | 0.7813 | 0.7813 | 0.7813 | 1.00
3 | NCCNS(=O)(=O)c1ccc(-c2cccc(NC[C@@H](N)CO)c2)c(-c2nn[nH]n2)c1S(N)(=O)=O [Example 349, (R)-3′-((2-amino-3-hydroxypropyl)amino)-N4-(2-aminoethyl)-2-(2H-tetrazol-5-yl)-[1,1′-biphenyl]-3,4-disulfonamide] | 1.563 | 1.563 | 1.563 | 2.00
4 | NCCn1nc2cccc(-c3ccc(S(=O)(=O)N[C@@H]4CCNC4)c(S(N)(=O)=O)c3-c3nn[nH]n3)c2n1 [Example 279, (R)-4-(2-(2-aminoethyl)-2H-benzo[d][1,2,3]triazol-4-yl)-N1-(pyrrolidin-3-yl)-3-(2H-tetrazol-5-yl)benzene-1,2-disulfonamide] | 0.7813 | 0.7813 | 0.7813 | 1.00
5 | NCCNS(=O)(=O)c1ccc(-c2cccc(NC[C@H](N)CO)c2)c(-c2nn[nH]n2)c1S(N)(=O)=O [Example 350, (S)-3′-((2-amino-3-hydroxypropyl)amino)-N4-(2-aminoethyl)-2-(2H-tetrazol-5-yl)-[1,1′-biphenyl]-3,4-disulfonamide] | 0.7813 | 0.7813 | 0.7813 | 1.00
6 | NCCN1CC[C@@H](NS(=O)(=O)c2ccc(-c3cccc4[nH]c(N)nc34)c(-c3nn[nH]n3)c2S(N)(=O)=O)C1 [Example 246, (R)-4-(2-amino-1H-benzo[d]imidazol-4-yl)-N1-(1-(2-aminoethyl)pyrrolidin-3-yl)-3-(2H-tetrazol-5-yl)benzene-1,2-disulfonamide] | 0.7813 | 1.563 | 1.563 | 2.00
7 | NCCNS(=O)(=O)c1ccc(-c2cccc3[nH]c(CCN)nc23)c(-c2nn[nH]n2)c1S(N)(=O)=O [Example 337, N1-(2-aminoethyl)-4-(2-(2-aminoethyl)-1H-benzo[d]imidazol-4-yl)-3-(2H-tetrazol-5-yl)benzene-1,2-disulfonamide] | 0.7813 | 0.7813 | 0.7813 | 2.00
8 | NCCNS(=O)(=O)c1ccc(-c2cccc(NC[C@@H](O)CN)c2)c(-c2nn[nH]n2)c1S(N)(=O)=O [Example 352, (S)-3′-((3-amino-2-hydroxypropyl)amino)-N4-(2-aminoethyl)-2-(2H-tetrazol-5-yl)-[1,1′-biphenyl]-3,4-disulfonamide] | 0.7813 | 1.563 | 1.563 | 2.00
9 | NCc1nc2c(-c3ccc(S(=O)(=O)N[C@@H](CN)CO)c(S(N)(=O)=O)c3-c3nn[nH]n3)cccc2[nH]1 [Example 379, (S)—N^1-(1-amino-3-hydroxypropan-2-yl)-4-(2-(aminomethyl)-1H-benzo[d]imidazol-4-yl)-3-(2H-tetrazol-5-yl)benzene-1,2-disulfonamide] | 1.563 | 1.563 | 1.563 | 2.00
10 | NCCNS(=O)(=O)c1ccc(-c2cccc3[nH]c([C@H](N)CN)nc23)c(-c2nn[nH]n2)c1S(N)(=O)=O [Example 335, (R)—N1-(2-aminoethyl)-4-(2-(1,2-diaminoethyl)-1H-benzo[d]imidazole-4-yl)-3-(2H-tetrazol-5-yl)benzene-1,2-disulfonamide] | 1.563 | 3.125 | 3.125 | 2.00
11 | Nc1cc(-c2ccc(S(=O)(=O)N[C@@H]3CCNC3)c(S(N)(=O)=O)c2-c2nn[nH]n2)ccn1 [Example 288, (R)-4-(2-aminopyridin-4-yl)-N1-(pyrrolidin-3-yl)-3-(2H-tetrazol-5-yl)benzene-1,2-disulfonamide] | 0.7813 | 1.563 | 1.563 | 2.00
12 | NCCNS(=O)(=O)c1ccc(-c2cccc(SC[C@@H](O)CN)c2)c(-c2nn[nH]n2)c1S(N)(=O)=O [Example 357, (S)-5′-(3-amino-2-hydroxypropylthio)-N4-(2-aminoethyl)-2-(2H-tetrazol-5-yl)biphenyl-3,4-disulfonamide] | 0.7813 | 0.7813 | 0.7813 | 2.00
13 | Cc1ccc(-c2ccc(S(=O)(=O)NCCN)c(S(N)(=O)=O)c2-c2nn[nH]n2)c2nc(N)[nH]c12 [Example 329, 4-(2-Amino-7-methyl-1H-benzo[d]imidazol-4-yl)-N1-(2-aminoethyl)-3-(2H-tetrazol-5-yl)benzene-1,2-disulfonamide] | 1.563 | 1.563 | 1.563 | 2.00
14 | NCCNS(=O)(=O)c1ccc(-c2cccc(NC[C@H](O)CN)c2)c(-c2nn[nH]n2)c1S(N)(=O)=O [Example 351, (R)-3′-((3-amino-2-hydroxypropyl)amino)-N4-(2-aminoethyl)-2-(2H-tetrazol-5-yl)-[1,1′-biphenyl]-3,4-disulfonamide] | 0.7813 | 1.563 | 1.563 | 2.00
15 | NCCNS(=O)(=O)c1ccc(-c2cccc(C(=O)NC[C@H](O)CN)c2)c(-c2nn[nH]n2)c1S(N)(=O)=O [Example 346, (R)—N-(3-amino-2-hydroxypropyl)-4′-(N-(2-aminoethyl)sulfamoyl)-3′-sulfamoyl-2′-(2H-tetrazol-5-yl)-[1,1′-biphenyl]-3-carboxamide] | 1.563 | 1.563 | 1.563 | 2.00
